Data set [1] in a line: Extent of hydrolysis of hydroxamic acids after extraction, washing and stripping, by spectrophotographic analysis. Conditions: for % DECOMPOSITION: additional, less careful determinations (untitled table); for % Decomposition (hydrolysis of hydroxamic acid): after extraction-wash-strip cycle, Table 4.
From the text: The method measures the apparent molecular absorbance at λ max where the maximum peak is obtained for a monohydroxamato iron (III) complex obtained by treating a specified quantity of the hydroxamic acid solution with an aqueous solution of ferric nitrate and nitric acid and n-butanol. The method is specific for hydroxamic acids and utilizes a peak in the 495-530 nanometer region of the spectrum.
Data set [2] in a line: Organic solubility and viscosity of organic solutions (Table 13). It counts as physicochemical. The source says: The organic solubilities and viscosity characteristics of N-alkylalkanohydroxamic acids, in comparison with N-H hydroxamic acids, are reported in Table 13.
Data set [3] in a line: Stirred-beaker extraction, 2% H2SO4 wash and 30% H2SO4 strip of gallium from phosphate treater dust leachate (Examples 1-7). Conditions: 5 minutes extraction.
Method: A gallium extraction was carried out in a stirred beaker, utilizing N-ethylnaphthenohydroxamic acid as extracting agent. A 20 ml solution that was 1.6 M in the hydroxamic acid in a petroleum distillate fraction (Kermac 470-B) was provided in the beaker by mixing 11.632 grams of 80.6% purity N-ethylnaphthenohydroxamic with the petroleum distillate to bring the volume to 20 ml. An equal volume of an aqueous phosphate treater dust leachate solution containing gallium was added. The gallium level in the leachate solution was 597 ppm and its pH was 1.55. The extraction was carried out at circa 55°-60° C. with stirring, and sampling of the aqueous phase at intervals (with interruption of the stirring).
At the end of the extraction, the organic and aqueous phases were separated. The organic phase was washed three times with 20 ml portions of 2% sulfuric acid, the washings being conducted at 57°-59° C. for five minutes each. […] The organic phase was then combined with 20 ml of 30% H2 SO4 in a procedure to strip the gallium. The stripping was carried out at about 60° C. with sampling at intervals to determine the amount of gallium present in the aqueous phase.
The nature of data set [4]: Analysis of hydroxamic acid remaining after acid stripping (Example 11). The format is physicochemical. An excerpt:
The organic solutions remaining after the acid stripping were washed with water and the petroleum ether was stripped under vacuum. […] Analysis of the unsubstituted naphthenohydroxamic acid indicated 91% decomposition. This example also indicates the usefulness of diluting the organic phase with a volatile, water immiscible organic solvent to provide more complete stripping of metal. After stripping the extractant is regenerated by distilling off the volatile solvent. Both organic liquids are recycled.

A short description of data set [5]: Hydroxamic acid in the aqueous phase (Example 24). The format is physicochemical. The note with it: for HA in aqueous phase: Table 19. The method, then: A solution was prepared containing 30% by weight N-methyl naphthenohydroxamic acid in kerosene solvent containing 5% by volume isodecanol. A gallium sulfate solution was prepared by mixing 1 ml of an aqueous gallium sulfate solution, 90.8 grams/liter concentration, with 25 ml deionized water. The thus prepared solution was blended with 25 ml of the N-methyl naphtheno hydroxamic acid solution and 800 microliters of 10N NaOH was added from a microburette. […] The gallium had been extracted into the organic solution. The aqueous phase was replaced with an equal volume of 0.1M sodium acetate, which gave a pH 8.21. A 60 microliter amount of 10N NaOH was added, which gave a 9.3 pH after the phases were blended for 20 minutes. […] Additional increments of l0N NaOH were added and gallium concentrations were determined after blending, with results as reported in Table 19. All blending operations were conducted at about 60° C.
The results in Table 19 indicate that the stripping into the aqueous phase is almost negligible at pH below about 11, and in fact the 15 ppm values reported are at about the limit of the analytical method used. […] It appears that efficient extraction can be effected under alkaline conditions ranging from pH 7 to about 11. In the initial result at pH 11.91, a large amount of the hydroxamic acid was stripped into the aqueous phase. However, after an additional amount of isodecanol was added, the phases were easily separated and hydroxamic acid was not found in the aqueous phase. Thus, for pH over about 11.5 it is greatly advantageous to have a coordination solvent such as a long-chain alkanol or other water-insoluble alcohol present in substantial quantity, such as around 20% or more by volume of the organic solvents present. The coordinating solvent modifier assists in phase separation and in avoiding undue loss of the hydroxamic acid to the aqueous stripping solution. Of course stripping the gallium can be accomplished despite significant loss of the hydroxamic acid, and the hydroxamic acid can be recycled with the stripping solution or recovered therefrom.

Data set [6] can be described thus: Percentage of extractant pulled into the aqueous phase by Fe (III) in 0.25M H2SO4. The format is physicochemical. Conditions: Fe (III) in 0.25M H2SO4 (pH=0.3), 22 °C. The method, then:
Tests were conducted on a series of hydroxamic acids to determine the percentages of the extractants pulled into an aqueous phase from an organic phase, by Fe (III) in 0.25M H2 SO4 (pH=0.3) at 22° C. The conditions represent a severe test of aqueous solubility since the pH favors FeA^++ formation, where A=hydroxamate anion. […] With regard to hydroxamic acids with n less than 6, a compound with n=4, i.e. N-methyl hexanohydroxamic acid, was approximately 35% pulled into the aqueous phase.

The conditions of data set [7]: below 0.01M nitric acid; cited from earlier work.

Where two headings read alike, the source gives them in different places.

As to N-n-propylnaphthenohydroxamic acid, in data set [1], the “% DECOMPOSITION” value was found to be 4.6% and the “% Decomposition (hydrolysis of hydroxamic acid)” value is given as “+0.74%”.
Consider neotridecanohydroxamic acid, for which, in data set [2] (Table 13), the “VISCOSITY ORGANIC SOL.” value was “High”, the “solubility in KEROSENE” value is recorded as “Soluble” and the “solubility in KEROSENE WITH ISODECANOL” value is given as “Soluble”.
Take `CCCCCCCCCCc1ccc(C(=O)N(C)O)cc1` [N-methyl 4-decylbenzo HA]: the “% DECOMPOSITION” value in data set [1] is 38.6%.
With N-methyl isostearohydroxamic acid, in data set [2] (Table 13), the “VISCOSITY ORGANIC SOL.” value is given as “V. Low”, the “solubility in KEROSENE” value is “V. Soluble (V. Soluble = dissolves in molar quantities (>1) (V = very))” and the “solubility in KEROSENE WITH ISODECANOL” value is given as “V. Soluble (V. Soluble = dissolves in molar quantities (>1) (V = very))”.
In the case of N-ethylnaphthenohydroxamic acid, in data set [1], the “% DECOMPOSITION” value came to 1.0% and the “% Decomposition (hydrolysis of hydroxamic acid)” value is given as -0.53%.
Take N-methylneodecanohydroxamic acid: the “% DECOMPOSITION” value in data set [1] was 0.13%.
Consider “naphthenohydroxamic acid [reference compound]”, for which, in data set [1], the “% DECOMPOSITION” value stood at 42.5% and the “% Decomposition (hydrolysis of hydroxamic acid)” value came out at 45%. In addition, in data set [1] (listed as N--H naphthenohydroxamic acid), the “% Decomposition (hydrolysis of hydroxamic acid)” value came out at 45.0%. Further, the “% Decomposition (hydrolysis of hydroxamic acid)” value in data set [1] (listed as unsubstituted hydroxamic acid) stood at 45%. Also, in data set [2] (Table 13), the “VISCOSITY ORGANIC SOL.” value is reported as “High”, the “solubility in KEROSENE” value is given as “Low” and the “solubility in KEROSENE WITH ISODECANOL” value is “Low”. For the same compound, the “Ga remaining in aqueous phase” value in data set [3] was determined as 3.6 ppm. In addition, in data set [4] (after acid stripping), the decomposition turned out to be 91%.
On to neodecanohydroxamic acid, for which the “Ga remaining in aqueous phase” value in data set [3] came out at 3 ppm.
Regarding N-methylnaphthenohydroxamic acid, the “VISCOSITY ORGANIC SOL.” value in data set [2] is on record as “Medium”. For the same compound, the “% Decomposition (hydrolysis of hydroxamic acid)” value (extraction-wash-strip cycle) was “+0.14%”. Also, the “% DECOMPOSITION” value (used extractant solutions) is recorded as 4.99%. For the same compound, the “extractant concentration after stripping (original 1M)” value in data set [4] (possibly mechanical losses and some dilution) amounted to 0.8744 M. Moreover, the “HA in aqueous phase” value in data set [5] (b715 pH 10.57, b719 after adding 10 ml isodecanol) is “negative”; in data set [5] (pH 11.91) it was 0.65 M. The “test for hydroxamic acid in aqueous phase” value in data set [5] (pH 8.26) is reported as “negative”.
On to `CCCCCC(=O)N(C)O` [N-methyl hexanohydroxamic acid], for which the “extractant pulled into the aqueous phase” value in data set [6] was “approximately 35%”.
On to `CCCCCCCC(=O)NO` [caprylhydroxamic acid], for which the hydrolysis entry in data set [7] is given as “hydrolysis occurs rather slowly”.

The values above are taken from US4943646A, “Gallium complexes and solvent extraction of gallium” (Monsanto Company, priority 1987, dated 1990).
